For 32 molecules, EC50 results are on record in patent US10329289B2, “6,7-dihydro-5H-pyrrolo[3,4-B]pyridin-5-one allosteric modulators of the M4 muscarinic acetylcholine receptor” (Merck Sharp & Dohme Corp., priority 2015, dated 2019).

The test concerns the target T1, human M4 muscarinic acetylcholine receptor (Homo sapiens, UniProt P08173).
T1 construct: expressed in transfected cells; host or cells: CHO-K1
T1 sequence (P08173 1-479): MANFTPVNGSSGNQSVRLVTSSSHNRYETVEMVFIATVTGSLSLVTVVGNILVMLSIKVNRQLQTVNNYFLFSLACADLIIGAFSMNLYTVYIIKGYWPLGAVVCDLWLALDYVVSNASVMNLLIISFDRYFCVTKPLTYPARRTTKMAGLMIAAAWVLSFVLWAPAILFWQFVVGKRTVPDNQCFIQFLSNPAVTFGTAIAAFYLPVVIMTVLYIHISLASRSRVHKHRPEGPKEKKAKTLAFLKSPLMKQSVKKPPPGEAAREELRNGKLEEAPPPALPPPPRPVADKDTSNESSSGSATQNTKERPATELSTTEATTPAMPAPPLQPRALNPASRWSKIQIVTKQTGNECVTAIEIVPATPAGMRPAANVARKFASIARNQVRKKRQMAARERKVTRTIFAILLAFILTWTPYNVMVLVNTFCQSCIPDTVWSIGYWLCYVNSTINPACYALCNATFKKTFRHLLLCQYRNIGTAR
Briefly: human FLIPR-based M4 PAM assay (Ca2+ mobilization, CHO-K1 cells with human M4 receptor and Gαqi5). It counts as cell-based. Particulars: acetylcholine at 20% of maximum response, read-out: M4 PAM IP. The essentials: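 CHO-K1 cells stably expressing human M4 and chimeric Gαqi5 were dye-loaded ~1 h at 37 °C and read for Ca2+ fluorescence. Compound followed by acetylcholine at an EC20 (sometimes an EC70 third addition); inflection point from a 4-parameter logistic fit.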
On the technique in general: Calcium assays in cells follow changes in intracellular calcium, usually with a dye or a luminescent sensor.
As to `Cc1cc2c(nc1N1CCC(Oc3cnn(C)c3)CC1)CNC2=O` [Example 139, 3-methyl-2-(4-((1-methyl-1H-pyrazol-4-yl)oxy)piperidin-1-yl)-6,7-dihydro-5H-pyrrolo[3,4-b]pyridin-5-one], the EC50 came out at 106 nM.
With `Cc1cc2c(nc1N1CCC(OC[C@@]3(C)C[C@@H]3F)CC1)CNC2=O` (single isomer, unassigned) [Example 160D] the figure was 37 nM; with `Cc1cc2c(nc1N1CCC(Oc3cnc4c(c3)OCC4)CC1)CNC2=O` [Example 216A, 2-(4-((2,3-dihydrofuro[3,2-b]pyridin-6-yl)oxy)piperidin-1-yl)-3-methyl-6,7-dihydro-5H-pyrrolo[3,4-b]pyridin-5-one], 288 nM.
Turning to `Cc1cc2c(nc1N1CCC(OCC3CCCC3)CC1)CNC2=O` [Example 175, 2-(4-(cyclopentylmethoxy)piperidin-1-yl)-3-methyl-6,7-dihydro-5H-pyrrolo[3,4-b]pyridin-5-one], the EC50 stood at 139 nM.
In the case of `Cc1c(N2CCC(Oc3ccc4c(c3)COC4)CC2)nc2c(c1C)C(=O)N(C)[C@H]2CO` (single isomer, unassigned) [Example 337B], the EC50 was found to be 867 nM.
In the case of `Cc1nc2cc(OC3CCN(c4nc5c(cc4C)C(=O)NC5)CC3)ccc2o1` [Example 123, 3-methyl-2-(4-((2-methylbenzo[d]oxazol-5-yl)oxy)piperidin-1-yl)-6,7-dihydro-5H-pyrrolo[3,4-b]pyridin-5-one] it was 144 nM; in that of `Cc1cc2c(nc1N1CCC(Oc3ccc(N(C)C)nc3)CC1)CNC2=O` [Example 106, 2-(4-((6-(dimethylamino)pyridin-3-yl)oxy)piperidin-1-yl)-3-methyl-6,7-dihydro-5H-pyrrolo[3,4-b]pyridin-5-one], 298 nM.
With `Cc1cc2c(nc1N1CCC(OC[C@@]3(C)C[C@H]3F)CC1)CNC2=O` (single isomer, unassigned) [Example 160B] the figure was 96 nM; with `Cc1c(N2CC[C@@H](OCC3(C)CC3)[C@@H](F)C2)nc2c(c1C)C(=O)NC2` [Example 161A, 2-((3S,4R)-3-Fluoro-4-((1-methylcyclopropyl)methoxy)piperidin-1-yl)-3,4-dimethyl-6,7-dihydro-5H-pyrrolo[3,4-b]pyridin-5-one], 21 nM.
In the case of `Cc1cc2c(nc1N1CCC(Oc3ccc4c(c3)COC4(C)C)CC1)CNC2=O` [Example 126, 2-(4-((1,1-dimethyl-1,3-dihydro-2-benzofuran-5-yl)oxy)piperidin-1-yl)-3-methyl-6,7-dihydro-5H-pyrrolo[3,4-b]pyridin-5-one] it was 216 nM.
Turning to `Cc1c(N2CCC(Oc3ccc4c(c3)COCC4)CC2)nc2c(c1C)C(=O)NC2` [Example 332, 2-(4-(isochroman-7-yloxy)piperidin-1-yl)-3,4-dimethyl-6,7-dihydro-5H-pyrrolo[3,4-b]pyridin-5-one], the EC50 turned out to be 368 nM.
Consider `CC(=O)N1Cc2ccc(OC3CCN(c4nc5c(cc4C)C(=O)NC5)CC3)cc2C1` [Example 294, 2-(4-((2-Acetylisoindolin-5-yl)oxy)piperidin-1-yl)-3-methyl-6,7-dihydro-5H-pyrrolo[3,4-b]pyridin-5-one], for which the EC50 was 202 nM.
As to `Cc1cc2c(nc1N1CC[C@@H](Oc3ccc4c(c3)COC4)[C@@H](F)C1)CNC2=O` [Example 40, 2-((3S,4R)-4-((1,3-dihydro-2-benzofuran-5-yl)oxy)-3-fluoropiperidin-1-yl)-3-methyl-6,7-dihydro-5H-pyrrolo[3,4-b]pyridin-5-one], the EC50 stood at 17 nM.
With `Cc1c(N2CC[C@@H](OCC3(C)CC3)[C@@H](F)C2)nc2c(c1C)C(=O)N(C)[C@@H]2CO` [Example 341A, (S)-2-((3S,4R)-3-fluoro-4-((1-methylcyclopropyl)methoxy)piperidin-1-yl)-7-(hydroxymethyl)-3,4,6-trimethyl-6,7-dihydro-5H-pyrrolo[3,4-b]pyridin-5-one] the figure was 9 nM.
With `Cc1cc2c(nc1N1CCC(OC[C@@]3(C)CC3(F)F)CC1)CNC2=O` [Example 8A, (R)-2-(4-((2,2-difluoro-1-methylcyclopropyl)methoxy)piperidin-1-yl)-3-methyl-6,7-dihydro-5H-pyrrolo[3,4-b]pyridin-5-one] the figure was 87 nM.
With `COc1ccc(OC2CCN(c3nc4c(cc3C)C(=O)NC4)CC2)cn1` [Example 1, 2-(4-((6-methoxypyridin-3-yl)oxy)piperidin-1-yl)-3-methyl-6,7-dihydro-5H-pyrrolo[3,4-b]pyridin-5-one] the figure was 27 nM; with `CCc1cc2c(nc1N1CCC(OCC3(C)CC3)CC1)[C@H](CO)N(C)C2=O` [Example 342, (R)-3-ethyl-7-(hydroxymethyl)-6-methyl-2-(4-((1-methylcyclopropyl)methoxy)piperidin-1-yl)-6,7-dihydro-5H-pyrrolo[3,4-b]pyridin-5-one], 3440 nM; with `Cc1c(N2CCC(OCC3CCC3)CC2)nc2c(c1C)C(=O)NC2` [Example 330, 2-(4-(cyclobutylmethoxy)piperidin-1-yl)-3,4-dimethyl-6,7-dihydro-5H-pyrrolo[3,4-b]pyridin-5-one], 51 nM.
On to `Cc1cc2c(nc1N1CCC(OCC3CCCCC3)CC1)CNC2=O` [Example 191, 2-(4-(cyclohexylmethoxy)piperidin-1-yl)-3-methyl-6,7-dihydro-5H-pyrrolo[3,4-b]pyridin-5-one], for which the EC50 turned out to be 492 nM.
In the case of `COCCOCc1ccc(OC2CCN(c3nc4c(cc3C)C(=O)NC4)CC2)cn1` [Example 204, 2-(4-((6-((2-methoxyethoxy)methyl)pyridin-3-yl)oxy)piperidin-1-yl)-3-methyl-6,7-dihydro-5H-pyrrolo[3,4-b]pyridin-5-one] it was 1110 nM; in that of `COC1(COC2CCN(c3nc4c(cc3C)C(=O)NC4)CC2)CC1` [Example 193, 2-(4-((1-methoxycyclopropyl)methoxy)piperidin-1-yl)-3-methyl-6,7-dihydro-5H-pyrrolo[3,4-b]pyridin-5-one], 1220 nM; in that of `COc1ccc(OC2CCN(c3nc4c(cc3C)C(=O)N(CCO)C4CO)CC2)cn1` (centres unmarked) [Example 375, 6-(2-Hydroxyethyl)-7-(hydroxymethyl)-2-(4-((6-methoxypyridin-3-yl)oxy)piperidin-1-yl)-3-methyl-6,7-dihydro-5H-pyrrolo[3,4-b]pyridin-5-one], 69 nM.
`Cc1ccc(OC2CCN(c3nc4c(cc3C)C(=O)NC4)CC2)cc1C` [Example 119, 2-(4-(3,4-dimethylphenoxy)piper-idin-1-yl)-3-methyl-6,7-dihydro-5H-pyrrolo[3,4-b]pyridin-5-one]: the EC50 was found to be 149 nM.
`COc1ccc(OC2CCN(c3nc4c(cc3C)C(=O)N(Cc3ccncc3)C4=O)CC2)cn1` [Example 296, 2-(4-((6-Methoxypyridin-3-yl)oxy)piperidin-1-yl)-3-methyl-6-(pyridin-4-ylmethyl)-5H-pyrrolo[3,4-b]pyridine-5,7(6H)-dione]: the EC50 worked out at 83 nM.
Regarding `O=C1NCc2nc(N3CCC(Oc4ccc5c(c4)COC5)CC3)c(Br)cc21` [Example 226, 3-bromo-2-(4-((1,3-dihydro-2-benzofuran-5-yl)oxy)piperidin-1-yl)-6,7-dihydro-5H-pyrrolo[3,4-b]pyridin-5-one], the EC50 came to 136 nM.
In the case of `Cc1cc2c(nc1N1CC[C@@H](Oc3ccccc3)[C@@H](F)C1)CN(C)C2=O` [Example 241, 2-((3S,4R)-3-fluoro-4-phenoxypiperidin-1-yl)-3,6-dimethyl-6,7-dihydro-5H-pyrrolo[3,4-b]pyridin-5-one] it was 22 nM; in that of `Cc1cc2c(nc1N1CCC(Oc3cnc4c(c3)NCCO4)CC1)CNC2=O` [Example 145, 2-(4-((2,3-dihydro-1H-pyrido[2,3-b][1,4]oxazin-7-yl)oxy)piperidin-1-yl)-3-methyl-6,7-dihydro-5H-pyrrolo[3,4-b]pyridin-5-one], 2160 nM.
With `Cc1c(N2CCC(Oc3ccc4c(c3)COCC4)CC2)nc2c(c1C)C(=O)N(C)[C@@H]2CO` (single isomer, unassigned) [Example 337C] the figure was 42 nM.
With `CC(=O)NCCOc1ccc(OC2CCN(c3nc4c(cc3C)C(=O)NC4)CC2)cn1` [Example 174, N-(2-((5-((1-(3-methyl-5-oxo-6,7-dihydro-5H-pyrrolo[3,4-b]pyridin-2-yl)piperidin-4-yl)oxy)pyridin-2-yl)oxy)ethyl)acetamide] the figure was 45 nM; with `COc1ccc(O[C@@H]2CCN(c3nc4c(cc3C)C(=O)N(C)[C@H]4CO)C[C@H]2F)cn1` [Example 281A, (R)-2-((3R,4R)-3-fluoro-4-((6-methoxypyridin-3-yl)oxy)piperidin-1-yl)-7-(hydroxymethyl)-3,6-dimethyl-6,7-dihydro-5H-pyrrolo[3,4-b]pyridin-5-one], 8060 nM; with `COc1ccc(OC2CCN(c3nc4c(cc3CF)C(=O)NC4)CC2)cn1` [Example 304, 3-(Fluoromethyl)-2-(4-((6-methoxypyridin-3-yl)oxy)piperidin-1-yl)-6,7-dihydro-5H-pyrrolo[3,4-b]pyridin-5-one], 1120 nM.
As for `Cc1cc2c(nc1N1CCC(Oc3ccc4[nH]ncc4c3)CC1)C(C)N(C)C2=O` (centres unmarked) [Example 14, 2-(4-((1H-indazol-5-yl)oxy)piperidin-1-yl)-3,6,7-trimethyl-6,7-dihydro-5H-pyrrolo[3,4-b]pyridin-5-one], the EC50 came to 52 nM.
